From patent US11993576B2, “N-benzyl-N-arylsulfonamide derivative and preparation and use thereof” (Hangzhou Yirui Pharmaceutical Technology Co., Ltd, priority 2019, dated 2024)

Tests used:
[1] = test system: rat model of allergic contact dermatitis (ACD); test: Rat model of allergic contact dermatitis (ACD model) induced by DNCB; format: in vivo; conditions: SD female rats, 5%, 1.5%, 0.5% applied to right ear by wiping three times a day, 4 days, FIG. 1
Procedure: IV. Effects of Compound 37 on a Rat Model of Allergic Contact Dermatitis (ACD Model) 1. Laboratory Animal
SPF SD female rats with body weight of 130-150 g were used.
Dexamethasone (DXMS) sodium phosphate injection, 5 mg/ml/injection (Shiyao Yinhu Pharmaceutical Co., Ltd.); 1-chloro-2,4-dinitrobenzene (DNCB) (TCI Shanghai); vehicle and negative control: acetone/DMSO 9:1 (Vehicle, Model group).
3.1 The animals were randomly divided into 6 groups based on body weight with 10 animals per group: blank control group, model control group, positive control group (dexamethasone sodium phosphate injection 5 mg/mL), 5% Compound 37 group, 1.5% Compound 37 group and 0.5% Compound 37 group.
3.2 Modeling and administration: a rat model of allergic contact dermatitis (ACD) was established by sensitizing and stimulating the rat's skin with a DNCB solution in acetone and DMSO (acetone-DMSO 9:1). The rats were normally fed in a SPF barrier system for 1 week. Long hair was removed with a razor and short hair was removed with depilatory cream within an area of about 2 cm×2 cm from abdomen of the rats one day before the experiment. […]
3.3 Measurement of difference between ear thicknesses: before the stimulation and after the final administration, the thickness of central parts of left and right ears of the rats in each of the groups was measured with electronic digital calipers. […]

[2] = biological target: human Kv1.3 (Homo sapiens, UniProt P22001); test: IonWorks automated patch clamp assay of inhibitory activity against Kv1.3; format: cell-based; conditions: automated patch clamp method; CHO-K1 cells stably expressing human Kv1.3
Method in brief: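 CHO-K1 cells stably expressing human Kv1.3, perforated-patch IonWorks Quattro (amphotericin B 200 μg/mL internal), external solution pH 7.3. Compounds 0.00384-30 μM final, 0.3% DMSO, 600 s incubation; four 1 s pulses to 0 mV from −80 mV. Inhibition from peak current ratio after/before compound.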

Sequence of human Kv1.3 (P22001 whole entry): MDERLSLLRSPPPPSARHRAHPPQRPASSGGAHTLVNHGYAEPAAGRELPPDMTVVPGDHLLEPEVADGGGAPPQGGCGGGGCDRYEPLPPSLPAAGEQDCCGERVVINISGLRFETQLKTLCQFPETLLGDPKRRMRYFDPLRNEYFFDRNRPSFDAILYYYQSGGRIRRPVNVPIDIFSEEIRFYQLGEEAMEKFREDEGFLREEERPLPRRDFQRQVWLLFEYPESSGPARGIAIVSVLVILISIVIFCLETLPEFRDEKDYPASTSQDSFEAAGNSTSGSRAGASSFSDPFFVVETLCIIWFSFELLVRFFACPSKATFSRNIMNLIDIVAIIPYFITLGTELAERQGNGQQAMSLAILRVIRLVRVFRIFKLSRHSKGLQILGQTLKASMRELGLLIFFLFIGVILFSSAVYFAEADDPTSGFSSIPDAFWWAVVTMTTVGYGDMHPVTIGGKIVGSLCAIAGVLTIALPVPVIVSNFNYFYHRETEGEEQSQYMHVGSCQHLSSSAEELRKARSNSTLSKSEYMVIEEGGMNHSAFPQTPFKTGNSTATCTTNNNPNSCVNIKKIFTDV

IC50 [2]: 92 nM
SMILES: CC(C)CS(=O)(=O)N(Cc1ccc(F)cc1)c1ccc(N2CCN(C(=O)N(C)C)CC2)c(C#N)c1 [Compound 37, 4-(2-cyano-4-((N-(4-fluorobenzyl)-2-methylpropyl)sulfonamido)phenyl)-N,N-dimethylpiperazin-1-formamide]
ear inflammation (difference between ear thicknesses) [1]: significantly reduced ear inflammation
